The text below walks through data of patent publication US20150105252A1, “SUBSTITUTED PYRAZOLES AS HERBICIDES” (E I DU PONT DE NEMOURS AND COMPANY, priority 2013, published 2015).

For assay [1], the system named is galium. As to the kind of experiment: Test C postemergence. The settings on record: for Plant response rating (scale of 0 to 100 where 0 is no effect and 100 is complete control), Galium: visually evaluated after 13 to 15 days; for Galium plant response rating: scale 0 to 100. The class given is in vivo, Galium aparine. Summed up:
(§1)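 Seeds were sown in a loam soil–sand blend and sprayed preemergence with compounds formulated in a non-phytotoxic solvent mixture containing surfactant. Postemergence plants, grown in peat/vermiculite medium to 2–18 cm (1- to 4-leaf stage), received the same formulation. After 13 to 15 days in a greenhouse, injury was rated visually against controls (0 = no effect, 100 = complete control).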

The subject of assay [2] is nutsedge, yellow. As to the kind of experiment: Test C preemergence. The class given is in vivo, Cyperus esculentus. Summed up: as §1
The test system of assay [3] is barnyardgrass. As to the kind of experiment: Test C preemergence. Format: in vivo, Echinochloa crus-galli. Summed up:
as §1

Assay [4] relates to foxtail, giant. As to the kind of experiment: Test C preemergence. Format: in vivo, Setaria faberii. In short, it runs like this:
as §1

The test system of assay [5] is pigweed. As to the kind of experiment: Test A preemergence. The class given is in vivo, Amaranthus retroflexus. The settings on record: for Pigweed plant response rating (0 to 100 scale): visual injury approx. 10 days after treatment. In short, it runs like this: (§2)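 Greenhouse test in loam soil/sand blend; compounds formulated in non-phytotoxic solvent with surfactant, applied as preemergence directed soil spray or postemergence to plants 2–10 cm tall at one- to two-leaf stage. Injury rated visually versus untreated controls after approximately 10 days on a 0 (no effect) to 100 (complete control) scale.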

Assay [6] concerns morningglory. As to the kind of experiment: Test A preemergence. The settings on record: for Morningglory plant response rating (0 to 100 scale): visual injury approx. 10 days after treatment. Format: in vivo, Ipomoea spp. In short, it runs like this: as §2
[7] abbreviates: postemergence, 250 g ai/ha, scale 0 to 100 (0 no effect, 100 complete control).
Where [8] appears, read: postemergence, 125 g ai/ha, scale 0 to 100, 0 no effect, 100 complete control.
The mark [9] stands for this setting: preemergence, 31 g ai/ha, visual rating, scale 0 to 100 (0 no effect, 100 complete control), 13 to 15 days.
The mark [10] stands for this setting: preemergence, 62 g ai/ha, scale 0 to 100 (0 no effect, 100 complete control), 13 to 15 days.
The mark [11] stands for this setting: preemergence, 125 g ai/ha, 13 to 15 days, scale 0 to 100, 0 = no effect, 100 = complete control.
The mark [12] stands for this setting: preemergence, 250 g ai/ha, scale 0 to 100, 0 is no effect, 100 is complete control.
Setting [13] is: preemergence, 500 g ai/ha, visual injury after approx. 10 days, 0 to 100 scale (0 no effect, 100 complete control).
Where [14] appears, read: preemergence, 31 g ai/ha, scale 0 to 100 (0 no effect, 100 complete control), 13 to 15 days.
Where [15] appears, read: preemergence, 62 g ai/ha, 13 to 15 days, scale 0 to 100, 0 = no effect, 100 = complete control.
[16] abbreviates: preemergence, 125 g ai/ha, scale 0 to 100, 0 is no effect, 100 is complete control.
Where [17] appears, read: Preemergence, 500 g ai/ha, 0 to 100 scale, 0 no effect, 100 complete control.
Setting [18] is: preemergence, 125 g ai/ha, visual injury, 0 to 100 scale, approx. 10 days.
Where [19] appears, read: Preemergence, rate head not shown (block before 16 g ai/ha), scale 0 to 100.
[20] abbreviates: Preemergence, 16 g ai/ha, scale 0 to 100.

For the molecule `CCCc1cc(C(=O)NC(C)C)nn1Cc1ccnc(C(F)(F)F)c1` [Compound 186], the “Plant response rating (scale of 0 to 100 where 0 is no effect and 100 is complete control), Galium” value in assay [1] (Postemergence, 31 g ai/ha) came to 70. Besides, the “Galium plant response rating” value in assay [1] (postemergence, 62 g ai/ha) came out at 80. Moreover, the figures for the “Plant response rating, Galium” value in assay [1] (setting [7]) and in assay [1] (setting [8]) were 100 and 75, respectively. Moreover, the “Nutsedge, Yellow plant response rating” value in assay [2] (setting [9]) was determined as 10; in assay [2] (setting [10]) it was 60; in assay [2] (setting [12]), 98. For the same molecule, the “Plant response rating, Nutsedge, Yellow” value in assay [2] (setting [11]) worked out at 85. The “Barnyardgrass plant response rating” value in assay [3] (setting [9]), in assay [3] (setting [10]) and in assay [3] (setting [12]) was 100 in each case. Moreover, in assay [3] (setting [11]), the “Plant response rating, Barnyardgrass” value came out at 100. The “Foxtail, Giant plant response rating” value in assay [4] (setting [9]), in assay [4] (setting [10]) and in assay [4] (setting [12]) was 100 each time. In addition, the “Plant response rating, Foxtail, Giant” value in assay [4] (setting [11]) is listed as 100. For the same molecule, the “Pigweed plant response rating (0 to 100 scale)” value in assay [5] (preemergence, 125 g ai/ha) is 0. In assay [5] (setting [13]), the “Pigweed plant response rating” value worked out at 0. The “Morningglory plant response rating (0 to 100 scale)” value in assay [6] (preemergence, 125 g ai/ha) stood at 100. The “Morningglory plant response rating” value in assay [6] (setting [13]) is listed as 100.
Take `CCOc1cc(C(=O)NOC(C)C)nn1Cc1ccnc(C(F)(F)F)c1` [Compound 153]: the “Plant response rating (scale of 0 to 100 where 0 is no effect and 100 is complete control), Galium” value in assay [1] (Postemergence, 31 g ai/ha) was 50. Besides, the “Galium plant response rating” value in assay [1] (postemergence, 62 g ai/ha) turned out to be 60. The “Plant response rating, Galium” value was determined as 80 in assay [1] (setting [7]) and 70 in assay [1] (setting [8]). The “Nutsedge, Yellow plant response rating” value in assay [2] (setting [9]) was 20; in assay [2] (setting [10]) it was 75; in assay [2] (setting [12]) it was 95. Also, the “Plant response rating, Nutsedge, Yellow” value in assay [2] (setting [11]) was found to be 85. Besides, the figures for the “Barnyardgrass plant response rating” value in assay [3] (setting [9]), in assay [3] (setting [10]) and in assay [3] (setting [12]) were 15, 95 and 100, respectively. The “Plant response rating, Barnyardgrass” value in assay [3] (setting [11]) is 100. Moreover, the “Foxtail, Giant plant response rating” value in assay [4] (setting [9]) is 60; in assay [4] (setting [10]), 85; in assay [4] (setting [12]), 100. The “Plant response rating, Foxtail, Giant” value in assay [4] (setting [11]) was 100. The “Pigweed plant response rating (0 to 100 scale)” value in assay [5] (preemergence, 125 g ai/ha) worked out at 100. Besides, the “Pigweed plant response rating” value in assay [5] (setting [13]) came to 100. Moreover, the “Morningglory plant response rating (0 to 100 scale)” value in assay [6] (preemergence, 125 g ai/ha) is 100. In assay [6] (setting [13]), the “Morningglory plant response rating” value was found to be 100.
On to `CCc1cc(C(=O)NC2CC2)nn1Cc1ccnc(C(F)(F)F)c1` [Compound 76], for which the “Plant response rating (scale of 0 to 100 where 0 is no effect and 100 is complete control), Galium” value in assay [1] (Postemergence, 31 g ai/ha) turned out to be 70. Moreover, in assay [1] (postemergence, 62 g ai/ha), the “Galium plant response rating” value is 75. In addition, the “Plant response rating, Galium” value in assay [1] (setting [7]) and in assay [1] (setting [8]) was 90 throughout. Further, the “Plant response rating (scale of 0 to 100), Nutsedge, Yellow” value in assay [2] (Preemergence, 250 g ai/ha) is listed as 98. In addition, the “Nutsedge, Yellow plant response rating” value in assay [2] (setting [14]) was determined as 40; in assay [2] (setting [16]), 90. Further, in assay [2] (setting [15]), the “Plant response rating, Nutsedge, Yellow” value was found to be 70. The “Plant response rating (scale of 0 to 100), Barnyardgrass” value in assay [3] (Preemergence, 250 g ai/ha) is reported as 100. Further, the “Barnyardgrass plant response rating” value in assay [3] (setting [14]) is reported as 95; in assay [3] (setting [16]), 100. For the same molecule, the “Plant response rating, Barnyardgrass” value in assay [3] (setting [15]) is 100. The “Plant response rating (scale of 0 to 100), Foxtail, Giant” value in assay [4] (Preemergence, 250 g ai/ha) is 100. For the same molecule, the “Foxtail, Giant plant response rating” value in assay [4] (setting [14]) and in assay [4] (setting [16]) was 100 each time. Besides, the “Plant response rating, Foxtail, Giant” value in assay [4] (setting [15]) came to 100. Also, the “Pigweed plant response rating” value in assay [5] (setting [17]) and in assay [5] (setting [18]) was 100 throughout. Moreover, the figures for the “Morningglory plant response rating” value in assay [6] (setting [17]) and in assay [6] (setting [18]) were 100 and 70, respectively.
On to `CCc1cc(C(=O)NCC(F)(F)F)nn1Cc1ccnc(Br)c1` [Compound 224], for which, in assay [1] (Postemergence, 31 g ai/ha), the “Plant response rating (scale of 0 to 100 where 0 is no effect and 100 is complete control), Galium” value stood at 50. Besides, the “Galium plant response rating” value in assay [1] (postemergence, 62 g ai/ha) was 55. Further, the results for the “Plant response rating, Galium” value in assay [1] (setting [7]) and in assay [1] (setting [8]) were 90 and 40, respectively. The “Plant response rating, Nutsedge, Yellow” value amounted to 85 in assay [2] (setting [19]) and 70 in assay [2] (setting [11]). The “Nutsedge, Yellow plant response rating” value was found to be 80 in assay [2] (setting [10]) and 90 in assay [2] (setting [12]). The “Barnyardgrass plant response rating” value in assay [3] (setting [9]) was determined as 25; in assay [3] (setting [10]), 40; in assay [3] (setting [12]) it was 100. Moreover, the “Plant response rating, Barnyardgrass” value in assay [3] (setting [11]) is listed as 100. Further, the “Plant response rating, Foxtail, Giant” value in assay [4] (setting [19]) was 95; in assay [4] (setting [11]) it was 100. The “Foxtail, Giant plant response rating” value in assay [4] (setting [10]) and in assay [4] (setting [12]) was 100 in each case. Further, the “Pigweed plant response rating (0 to 100 scale)” value in assay [5] (preemergence, 125 g ai/ha) came out at 100. Besides, the “Morningglory plant response rating (0 to 100 scale)” value in assay [6] (preemergence, 125 g ai/ha) came out at 30.
As to `CCCNC(=O)c1cc(CC)n(Cc2ccnc(C(F)(F)F)c2)n1` [Compound 75], in assay [1] (Postemergence, 16 g ai/ha), the “Plant response rating (scale of 0 to 100), Galium” value stood at 50. Moreover, the “Galium plant response rating” value in assay [1] (Postemergence, 31 g ai/ha) worked out at 60; in assay [1] (postemergence, 62 g ai/ha), 60. Also, the “Plant response rating, Galium” value in assay [1] (setting [8]) was 65. Also, the figures for the “Nutsedge, Yellow plant response rating” value in assay [2] (setting [14]) and in assay [2] (setting [16]) were 55 and 85, respectively. Moreover, the “Plant response rating, Nutsedge, Yellow” value in assay [2] (setting [15]) came out at 75. In addition, the “Plant response rating, Barnyardgrass” value was 60 in assay [3] (setting [20]) and 100 in assay [3] (setting [15]). Moreover, the “Barnyardgrass plant response rating” value in assay [3] (setting [14]) and in assay [3] (setting [16]) was 100 in each case. Further, the “Plant response rating, Foxtail, Giant” value is 80 in assay [4] (setting [20]) and 100 in assay [4] (setting [15]). Also, the “Foxtail, Giant plant response rating” value came to 85 in assay [4] (setting [14]) and 100 in assay [4] (setting [16]). The “Pigweed plant response rating” value in assay [5] (setting [17]) and in assay [5] (setting [18]) was 100 each time. Moreover, the “Morningglory plant response rating” value in assay [6] (setting [17]) and in assay [6] (setting [18]) was 90 in each case.
With `CCc1cc(C(=O)NCC(F)(F)F)nn1Cc1ccnc(SC(F)(F)F)c1` [Compound 214], the “Plant response rating (scale of 0 to 100 where 0 is no effect and 100 is complete control), Galium” value in assay [1] (Postemergence, 31 g ai/ha) is 75. The “Galium plant response rating” value in assay [1] (postemergence, 62 g ai/ha) came to 70. Further, the “Plant response rating, Galium” value in assay [1] (setting [7]) is 90; in assay [1] (setting [8]), 60. Further, the figures for the “Nutsedge, Yellow plant response rating” value in assay [2] (setting [9]), in assay [2] (setting [10]) and in assay [2] (setting [12]) were 25, 55 and 65, respectively. Besides, the “Plant response rating, Nutsedge, Yellow” value in assay [2] (setting [11]) stood at 65. The “Barnyardgrass plant response rating” value in assay [3] (setting [9]) is given as 40; in assay [3] (setting [10]) it was 95; in assay [3] (setting [12]) it was 100. Further, the “Plant response rating, Barnyardgrass” value in assay [3] (setting [11]) was determined as 100. Also, the “Foxtail, Giant plant response rating” value was 90 in assay [4] (setting [9]), 98 in assay [4] (setting [10]) and 100 in assay [4] (setting [12]). The “Plant response rating, Foxtail, Giant” value in assay [4] (setting [11]) was 100. The “Pigweed plant response rating (0 to 100 scale)” value in assay [5] (preemergence, 125 g ai/ha) was found to be 100. In addition, the “Morningglory plant response rating (0 to 100 scale)” value in assay [6] (preemergence, 125 g ai/ha) came out at 80.
